Source: US20240165244A1 (Prelude Therapeutics Incorporated, priority 2022, published 2024)

How the values were obtained:
[1] = molecular target: T1, SMARCA4 (Homo sapiens, UniProt P51532); assay: SMARCA4 HiBiT degradation assay in HeLa cells; format: cell-based; details: 18 hours, highest concentration 10 μM
T1 construct: SMARCA4-HiBiT knock-in Hela monoclonal cell (CS3023226); host or cells: HeLa monoclonal cells with heterozygous HiBiT knock-in at the endogenous SMARCA4 locus
Summary of the method: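 HeLa monoclonal cells with HiBiT knocked into SMARCA4 were seeded at 2500 cells/well, dosed with compound and incubated 18 hours at 37° C. HiBiT signal reported remaining SMARCA4 protein, and values came from curve fitting.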

[2] = molecular target: T2, SMARCA2 (Homo sapiens, UniProt P51531); assay: SMARCA2 HiBiT degradation assay in HeLa cells; format: cell-based; details: 18 hours, highest concentration 10 μM
T2 construct: SMARCA2-HiBiT knock-in Hela monoclonal cell (CS302366); host or cells: HeLa monoclonal cells with heterozygous HiBiT knock-in at the endogenous SMARCA2 locus
T2 sequence (P51531 whole entry): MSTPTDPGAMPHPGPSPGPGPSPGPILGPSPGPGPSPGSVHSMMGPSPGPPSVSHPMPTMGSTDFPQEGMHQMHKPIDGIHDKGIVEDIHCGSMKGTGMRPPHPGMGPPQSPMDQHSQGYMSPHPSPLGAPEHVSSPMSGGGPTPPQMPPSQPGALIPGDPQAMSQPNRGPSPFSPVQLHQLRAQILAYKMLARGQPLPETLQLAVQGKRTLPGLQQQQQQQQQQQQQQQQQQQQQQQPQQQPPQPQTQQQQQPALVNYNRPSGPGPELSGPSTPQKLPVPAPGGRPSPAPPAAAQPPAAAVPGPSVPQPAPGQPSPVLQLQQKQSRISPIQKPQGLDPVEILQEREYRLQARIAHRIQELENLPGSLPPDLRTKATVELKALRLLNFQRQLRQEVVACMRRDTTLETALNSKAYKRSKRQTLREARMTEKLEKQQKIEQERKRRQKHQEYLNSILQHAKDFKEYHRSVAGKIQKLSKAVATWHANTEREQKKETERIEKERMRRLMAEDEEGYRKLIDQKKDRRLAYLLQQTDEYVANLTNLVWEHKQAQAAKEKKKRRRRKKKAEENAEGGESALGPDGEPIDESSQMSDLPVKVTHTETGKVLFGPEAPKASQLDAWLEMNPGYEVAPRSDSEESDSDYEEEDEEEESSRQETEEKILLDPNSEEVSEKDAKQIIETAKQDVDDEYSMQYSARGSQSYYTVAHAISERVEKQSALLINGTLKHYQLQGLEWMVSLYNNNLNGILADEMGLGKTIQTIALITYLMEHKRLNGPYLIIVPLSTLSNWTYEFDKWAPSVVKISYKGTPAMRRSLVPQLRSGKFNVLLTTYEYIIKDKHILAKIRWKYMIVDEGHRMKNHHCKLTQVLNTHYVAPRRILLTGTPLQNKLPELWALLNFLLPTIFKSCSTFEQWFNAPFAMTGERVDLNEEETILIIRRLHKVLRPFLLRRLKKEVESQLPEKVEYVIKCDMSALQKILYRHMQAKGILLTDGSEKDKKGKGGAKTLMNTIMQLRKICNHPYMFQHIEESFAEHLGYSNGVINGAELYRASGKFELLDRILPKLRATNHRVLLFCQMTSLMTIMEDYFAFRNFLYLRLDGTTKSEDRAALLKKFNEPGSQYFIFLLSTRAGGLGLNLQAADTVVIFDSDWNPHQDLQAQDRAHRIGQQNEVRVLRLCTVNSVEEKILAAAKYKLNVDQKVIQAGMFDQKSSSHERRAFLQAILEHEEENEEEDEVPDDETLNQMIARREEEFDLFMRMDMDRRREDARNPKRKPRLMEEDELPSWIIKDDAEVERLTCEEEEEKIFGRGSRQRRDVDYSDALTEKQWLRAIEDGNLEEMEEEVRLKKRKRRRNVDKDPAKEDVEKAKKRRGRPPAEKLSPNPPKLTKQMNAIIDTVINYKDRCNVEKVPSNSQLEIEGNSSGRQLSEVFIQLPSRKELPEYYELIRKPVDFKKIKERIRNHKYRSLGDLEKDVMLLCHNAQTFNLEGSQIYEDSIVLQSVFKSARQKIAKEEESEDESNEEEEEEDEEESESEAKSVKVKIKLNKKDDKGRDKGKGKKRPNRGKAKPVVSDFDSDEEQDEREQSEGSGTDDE
Summary of the method: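 Degradation was read as Nano-Glo HiBiT lytic luminescence (30-60 min, RT) and fitted to curves. Compounds in 3-fold dilutions up to 10 μM were applied for 18 h at 37 °C. Cells were 2500/well monoclonal HeLa with a heterozygous C-terminal HiBiT tag on SMARCA2.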

T1 sequence (P51532 whole entry): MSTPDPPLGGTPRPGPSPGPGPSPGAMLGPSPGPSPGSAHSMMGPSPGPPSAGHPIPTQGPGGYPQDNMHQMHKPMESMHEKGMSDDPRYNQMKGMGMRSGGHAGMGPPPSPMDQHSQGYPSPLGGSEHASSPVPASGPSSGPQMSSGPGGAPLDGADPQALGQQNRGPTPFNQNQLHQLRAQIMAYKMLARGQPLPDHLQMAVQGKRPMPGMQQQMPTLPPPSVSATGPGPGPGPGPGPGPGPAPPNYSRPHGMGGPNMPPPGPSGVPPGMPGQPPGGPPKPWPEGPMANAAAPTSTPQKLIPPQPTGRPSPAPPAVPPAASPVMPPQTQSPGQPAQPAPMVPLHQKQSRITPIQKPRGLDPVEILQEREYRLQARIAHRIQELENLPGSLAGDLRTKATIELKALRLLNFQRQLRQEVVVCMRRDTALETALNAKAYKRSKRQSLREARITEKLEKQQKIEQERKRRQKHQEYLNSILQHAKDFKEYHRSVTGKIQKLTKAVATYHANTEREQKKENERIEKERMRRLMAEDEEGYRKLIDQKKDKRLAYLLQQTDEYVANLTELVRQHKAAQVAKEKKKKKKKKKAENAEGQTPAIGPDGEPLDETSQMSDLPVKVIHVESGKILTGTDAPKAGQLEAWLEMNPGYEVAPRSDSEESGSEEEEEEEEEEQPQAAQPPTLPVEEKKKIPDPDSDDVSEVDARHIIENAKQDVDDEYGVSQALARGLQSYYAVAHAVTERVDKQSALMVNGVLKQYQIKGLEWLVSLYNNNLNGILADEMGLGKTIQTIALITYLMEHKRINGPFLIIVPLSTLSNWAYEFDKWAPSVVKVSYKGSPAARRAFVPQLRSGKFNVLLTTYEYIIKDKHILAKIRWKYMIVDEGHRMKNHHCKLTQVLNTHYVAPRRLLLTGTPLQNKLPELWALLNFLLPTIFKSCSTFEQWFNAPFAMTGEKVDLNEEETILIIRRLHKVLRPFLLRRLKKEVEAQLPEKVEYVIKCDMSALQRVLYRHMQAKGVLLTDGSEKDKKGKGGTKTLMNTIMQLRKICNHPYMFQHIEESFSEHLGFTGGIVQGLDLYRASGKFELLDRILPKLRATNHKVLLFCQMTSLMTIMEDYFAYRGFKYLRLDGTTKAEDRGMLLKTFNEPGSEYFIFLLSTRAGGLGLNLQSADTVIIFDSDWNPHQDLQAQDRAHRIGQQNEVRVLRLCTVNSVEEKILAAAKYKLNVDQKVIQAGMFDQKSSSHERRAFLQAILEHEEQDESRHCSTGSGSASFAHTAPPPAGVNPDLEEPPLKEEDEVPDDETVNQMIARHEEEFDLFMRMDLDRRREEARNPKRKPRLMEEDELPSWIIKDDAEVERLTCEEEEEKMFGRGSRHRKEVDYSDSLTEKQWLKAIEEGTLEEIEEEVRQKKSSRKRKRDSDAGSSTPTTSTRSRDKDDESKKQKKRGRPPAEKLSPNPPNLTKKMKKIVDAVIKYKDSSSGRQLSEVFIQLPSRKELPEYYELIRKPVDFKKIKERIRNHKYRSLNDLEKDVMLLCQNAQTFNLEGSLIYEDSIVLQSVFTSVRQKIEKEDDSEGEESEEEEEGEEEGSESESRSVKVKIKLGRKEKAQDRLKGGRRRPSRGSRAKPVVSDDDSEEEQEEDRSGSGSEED

| DC50 [1] | Dmax [1] | DC50 [2] | Dmax [2] | SMILES |
| --- | --- | --- | --- | --- |
| < 100 nM | 50 to 75% | < 100 nM | > 75% | CC[C@@]12CNc3nnc(-c4cccc(F)c4O)cc3N1C[C@H](Oc1nc(C)c(CN3CCN(c4ccc5c(c4)C(=O)N([C@H]4CCC(=O)NC4=O)C5)CC3)cc1C#N)C2 [Example 59, 5-((4-(2-((S)-2,6-dioxopiperidin-3-yl)-3-oxoisoindolin-5-yl)piperazin-1-yl)methyl)-2-(((6aR,8R)-6a-ethyl-2-(3-fluoro-2-hydroxyphenyl)-5,6,6a,7,8,9-hexahydropyrrolo[1′,2′:4,5]pyrazino[2,3-c]pyridazin-8-yl)oxy)-6-methylnicotinonitrile] |
| < 100 nM | 50 to 75% | < 100 nM | > 75% | CC[C@@]12CNc3nnc(-c4cccc(F)c4O)cc3N1C[C@H](Oc1ncc(CN3CCN(c4ccc5c(c4)C(=O)N(C4CCC(=O)NC4=O)C5)CC3)c(C)c1F)C2 (stereo partly drawn) [Example 61, 3-(6-(4-((6-(((6aR,8R)-6a-ethyl-2-(3-fluoro-2-hydroxyphenyl)-5,6,6a,7,8,9-hexahydropyrrolo[1′,2′:4,5]pyrazino[2,3-c]pyridazin-8-yl)oxy)-5-fluoro-4-methylpyridin-3-yl)methyl)piperazin-1-yl)-1-oxoisoindolin-2-yl)piperidine-2,6-dione] |
| 100 to 1000 nM | < 50% | < 100 nM | > 75% | CC[C@@]12CNc3nnc(-c4cccc(F)c4O)cc3N1C[C@H](Oc1cc(C)c(CN3CCN(c4ccc5c(c4)C(=O)N(C4CCC(=O)NC4=O)C5)CC3)c(C)n1)C2 (stereo partly drawn) [Example 62, 3-(6-(4-((6-(((6aR,8R)-6a-ethyl-2-(3-fluoro-2-hydroxyphenyl)-5,6,6a,7,8,9-hexahydropyrrolo[1′,2′:4,5]pyrazino[2,3-c]pyridazin-8-yl)oxy)-2,4-dimethylpyridin-3-yl)methyl)piperazin-1-yl)-1-oxoisoindolin-2-yl)piperidine-2,6-dione] |
| < 100 nM | 50 to 75% | < 100 nM | > 75% | Cc1nc(CN2CCN(c3ccc4c(c3)C(=O)N([C@H]3CCC(=O)NC3=O)C4)CC2)cnc1O[C@H]1CN2c3cc(-c4cccc(F)c4O)nnc3NC[C@]2(CF)C1 [Example 66, (S)-3-(6-(4-((5-(((6aS,8R)-2-(3-fluoro-2-hydroxyphenyl)-6a-(fluoromethyl)-5,6,6a,7,8,9-hexahydropyrrolo[1′,2′:4,5]pyrazino[2,3-c]pyridazin-8-yl)oxy)-6-methylpyrazin-2-yl)methyl)piperazin-1-yl)-1-oxoisoindolin-2-yl)piperidine-2,6-dione] |
| < 100 nM | > 75% | < 100 nM | > 75% | Cc1nc(O[C@H]2CN3c4cc(-c5cccc(F)c5O)nnc4NC[C@]3(CF)C2)c(F)cc1CN1CCN(c2ccc3c(c2)C(=O)N([C@H]2CCC(=O)NC2=O)C3)CC1 [Example 69, (S)-3-(6-(4-((5-fluoro-6-(((6aS,8R)-2-(3-fluoro-2-hydroxyphenyl)-6a-(fluoromethyl)-5,6,6a,7,8,9-hexahydropyrrolo[1′,2′:4,5]pyrazino[2,3-c]pyridazin-8-yl)oxy)-2-methylpyridin-3-yl)methyl)piperazin-1-yl)-1-oxoisoindolin-2-yl)piperidine-2,6-dione] |

Continued, compound first:

| SMILES | DC50 [1] | Dmax [1] | DC50 [2] | Dmax [2] |
| --- | --- | --- | --- | --- |
| CC[C@@]12CNc3nnc(-c4cccc(F)c4O)cc3N1C[C@H](Sc1cc(C)c(CN3CCN(c4ccc5c(c4)C(=O)N([C@H]4CCC(=O)NC4=O)C5)CC3)cn1)C2 [Example 60, 3-(6-(4-((6-(((6aR,8R)-6a-ethyl-2-(3-fluoro-2-hydroxyphenyl)-5,6,6a,7,8,9-hexahydropyrrolo[1′,2′:4,5]pyrazino[2,3-c]pyridazin-8-yl)thio)-4-methylpyridin-3-yl)methyl)piperazin-1-yl)-1-oxoisoindolin-2-yl)piperidine-2,6-dione] | < 100 nM | 50 to 75% | < 100 nM | > 75% |
| CC[C@@]12CNc3nnc(-c4cc(F)cc(F)c4O)cc3N1C[C@H](Oc1ccc(CN3CCN(c4ccc5c(c4)C(=O)N(C4CCC(=O)NC4=O)C5)CC3)cn1)C2 (stereo partly drawn) [Example 63, 3-(6-(4-((6-(((6aR,8R)-2-(3,5-difluoro-2-hydroxyphenyl)-6a-ethyl-5,6,6a,7,8,9-hexahydropyrrolo[1′,2′:4,5]pyrazino[2,3-c]pyridazin-8-yl)oxy)pyridin-3-yl)methyl)piperazin-1-yl)-1-oxoisoindolin-2-yl)piperidine-2,6-dione] | < 100 nM | > 75% | < 100 nM | > 75% |
| Cc1nc(CN2CCN(c3ccc4c(c3)C(=O)N([C@H]3CCC(=O)NC3=O)C4)CC2)cnc1O[C@H]1CN2c3cc(-c4cccc(F)c4O)nnc3NC[C@@]2(CF)C1 [Example 64, (S)-3-(6-(4-((5-(((6aR,8R)-2-(3-fluoro-2-hydroxyphenyl)-6a-(fluoromethyl)-5,6,6a,7,8,9-hexahydropyrrolo[1′,2′:4,5]pyrazino[2,3-c]pyridazin-8-yl)oxy)-6-methylpyrazin-2-yl)methyl)piperazin-1-yl)-1-oxoisoindolin-2-yl)piperidine-2,6-dione] | 100 to 1000 nM | < 50% | < 100 nM | > 75% |
| Cc1nc(CN2CCC(c3ccc4c(c3)C(=O)N([C@H]3CCC(=O)NC3=O)C4)CC2)cnc1O[C@H]1CN2c3cc(-c4cccc(F)c4O)nnc3NC[C@@]2(CF)C1 [Example 65, (S)-3-(6-(1-((5-(((6aR,8R)-2-(3-Fluoro-2-hydroxyphenyl)-6a-(fluoromethyl)-5,6,6a,7,8,9-hexahydropyrrolo[1′,2′:4,5]pyrazino[2,3-c]pyridazin-8-yl)oxy)-6-methylpyrazin-2-yl)methyl)piperidin-4-yl)-1-oxoisoindolin-2-yl)piperidine-2,6-dione] | 100 to 1000 nM | < 50% | < 100 nM | > 75% |
| CCc1nc(CN2CCN(c3ccc4c(c3)C(=O)N([C@H]3CCC(=O)NC3=O)C4)CC2)cnc1O[C@H]1CN2c3cc(-c4cccc(F)c4O)nnc3NC[C@@]2(CF)C1 [Example 67, (S)-3-(6-(4-((6-ethyl-5-(((6aR,8R)-2-(3-fluoro-2-hydroxyphenyl)-6a-(fluoromethyl)-5,6,6a,7,8,9-hexahydropyrrolo[1′,2′:4,5]pyrazino[2,3-c]pyridazin-8-yl)oxy)pyrazin-2-yl)methyl)piperazin-1-yl)-1-oxoisoindolin-2-yl)piperidine-2,6-dione] | > 1000 nM | < 50% | < 100 nM | > 75% |
| CCc1nc(CN2CCC(c3ccc4c(c3)C(=O)N([C@H]3CCC(=O)NC3=O)C4)CC2)cnc1O[C@H]1CN2c3cc(-c4cccc(F)c4O)nnc3NC[C@@]2(CF)C1 [Example 68, (S)-3-(6-(1-((6-ethyl-5-(((6aR,8R)-2-(3-fluoro-2-hydroxyphenyl)-6a-(fluoromethyl)-5,6,6a,7,8,9-hexahydropyrrolo[1′,2′:4,5]pyrazino[2,3-c]pyridazin-8-yl)oxy)pyrazin-2-yl)methyl)piperidin-4-yl)-1-oxoisoindolin-2-yl)piperidine-2,6-dione] | > 1000 nM | < 50% | < 100 nM | > 75% |
| O=C1CCC(N2Cc3ccc(N4CCN(Cc5cnc(O[C@H]6CN7c8cc(-c9cccc(F)c9O)nnc8NC[C@@]7(CF)C6)c(F)c5)CC4)cc3C2=O)C(=O)N1 (stereo partly drawn) [Example 70, 3-(6-(4-((5-fluoro-6-(((6aR,8R)-2-(3-fluoro-2-hydroxyphenyl)-6a-(fluoromethyl)-5,6,6a,7,8,9-hexahydropyrrolo[1′,2′:4,5]pyrazino[2,3-c]pyridazin-8-yl)oxy)pyridin-3-yl)methyl)piperazin-1-yl)-1-oxoisoindolin-2-yl)piperidine-2,6-dione] | < 100 nM | 50 to 75% | < 100 nM | > 75% |
| Cc1c(CN2CCN(c3ccc4c(c3)C(=O)N([C@H]3CCC(=O)NC3=O)C4)CC2)cnc(O[C@H]2CN3c4cc(-c5cccc(F)c5O)nnc4NC[C@@]3(CF)C2)c1F [Example 71, (S)-3-(6-(4-((5-fluoro-6-(((6aR,8R)-2-(3-fluoro-2-hydroxyphenyl)-6a-(fluoromethyl)-5,6,6a,7,8,9-hexahydropyrrolo[1′,2′:4,5]pyrazino[2,3-c]pyridazin-8-yl)oxy)-4-methylpyridin-3-yl)methyl)piperazin-1-yl)-1-oxoisoindolin-2-yl)piperidine-2,6-dione] | > 1000 nM | < 50% | < 100 nM | > 75% |
| CC[C@@]12CNc3nnc(-c4cccc(F)c4O)cc3N1C[C@H](Oc1cnc(CN3CCN(c4ccc5c(c4)CN([C@H]4CCC(=O)NC4=O)C5)CC3)c(F)c1)C2 [Example 72, (S)-3-(6-(4-((5-(((6aR,8R)-6a-Ethyl-2-(3-fluoro-2-hydroxyphenyl)-5,6,6a,7,8,9-exahydropyrrolo[1′,2′:4,5]pyrazino[2,3-c]pyridazin-8-yl)oxy)-3-fluoropyridin-2-yl)methyl)piperazin-1-yl)-1-oxoisoindolin-2-yl)piperidine-2,6-dione] | 100 to 1000 nM | < 50% | < 100 nM | > 75% |
| CC[C@]12CNc3nnc(-c4cccc(F)c4O)cc3N1C[C@H](Oc1cnc(CN3CCN(c4ccc5c(c4)CN([C@H]4CCC(=O)NC4=O)C5=O)CC3)c(C(F)(F)F)c1)C2 [Example 73, (S)-3-(5-(4-((5-(((6aS,8R)-6a-ethyl-2-(3-fluoro-2-hydroxyphenyl)-5,6,6a,7,8,9-hexahydropyrrolo[1′,2′:4,5]pyrazino[2,3-c]pyridazin-8-yl)oxy)-3-(trifluoromethyl)pyridin-2-yl)methyl)piperazin-1-yl)-1-oxoisoindolin-2-yl)piperidine-2,6-dione] | < 100 nM | 50 to 75% | < 100 nM | > 75% |
